Measured values published in patent US4783461A, “3,6-disubstituted triazolo [3,4-A]phthalazine derivatives” (Gruppo Lepetit S.p.A., priority 1983, dated 1988).

Tests used:
[1] = biological target: rat brain benzodiazepine receptors (3H-diazepam receptor); test: benzodiazepine-receptor binding test in vitro (inhibition of specific 3H-diazepam binding to rat brain membranes); conditions: 3H-diazepam displacement, read-out: inhibition constant Ki (Ki = IC50/(1+C/KD)) for specific 3H-diazepam binding
From the text: The pharmacological properties of the compounds of the present invention were first investigated by submitting some representative members of this class to the benzodiazepine-receptor binding-test in vitro.

[2] = tested on: rats; test: conflict test in rats (punished responding, Vogel method as modified by Lippa); format: in vivo; conditions: Rattus norvegicus, ip, 1 h, i.p., tested 60 minutes after administration, read-out: minimal effective dose (MED) significantly increasing the number of shocks versus controls
Protocol: The ability of the compounds of the present invention to increase punished responding in animals in a conflict situation, a procedure with high validity for predicting the anxiolytic effect of drugs, was assessed by testing these compounds in rats according to the method described by J. R. Vogel, B. Beer, E. D. Clody in Psychopharmacologia 21, 1-7 (1971) as modified by A. S. Lippa et al., in "Anxiolytics, Industrial Pharmacology",Vol. 3, Futura Publishing, 1979, pages 41-81. Briefly, rats are deprived for water for 48 hours and deprived of food for 20 hours prior to testing. Sixty minutes after administration of the test compound each rat is placed in an especially equipped cage. A glucose solution is available from a tap located in the rear of the cage. A constant pulsating shocking current is connected between the grid floor and the tap. Each rat is allowed 20 seconds of non-shocked drinking, then cycles of 5 seconds shock-off and 5 seconds shock-on began. During the shock-on period each lick on the tap is accompanied by shock. The number of shocks received by each animal is recorded and minimal effective doses are determined.

Compound | Ki [1] | minimal effective dose [2]
COCCOCc1nn2c(-c3ccc(OC)cc3)nnc2c2ccccc12 [Example 1, 6-[(2-Methoxyethoxy)methyl]-3-(4-methoxyphenyl)-1,2,4-triazolo[3,4-a]phthalazine] | 20 nM | 5 mg/kg
COc1ccc(-c2nnc3c4ccccc4c(CN4CCCC4)nn23)cc1 [Example 2, 3-(4-Methoxyphenyl)-6-[(1-pyrrolidinyl)methyl]-1,2,4-triazolo[3,4-a]phthalazine] | 150 nM | –
